Source: patent publication US12595248B2, “PRMT5 inhibitors” (Merck Sharp & Dohme LLC, priority 2019, dated 2026)
Read-outs that look alike come from different tables or passages of the source.

How the values were obtained:
[1] = target: T1, PRMT5-MEP50 enzyme complex (Homo sapiens, UniProt O14744); test: PRMT5-MEP50 Enzyme Methylation Assay (Version B); assay type: biochemical
T1 construct: Full-length (FL)-PRMT5-MEP50 enzyme complex (recombinant proteins from baculovirus-transfected Sf21 cells: FL-PRMT5; MW=73837 kDa and FL-MEP50; MW=38614); made in house; host or cells: baculovirus-transfected Sf21 cells
T1 sequence (O14744 whole entry): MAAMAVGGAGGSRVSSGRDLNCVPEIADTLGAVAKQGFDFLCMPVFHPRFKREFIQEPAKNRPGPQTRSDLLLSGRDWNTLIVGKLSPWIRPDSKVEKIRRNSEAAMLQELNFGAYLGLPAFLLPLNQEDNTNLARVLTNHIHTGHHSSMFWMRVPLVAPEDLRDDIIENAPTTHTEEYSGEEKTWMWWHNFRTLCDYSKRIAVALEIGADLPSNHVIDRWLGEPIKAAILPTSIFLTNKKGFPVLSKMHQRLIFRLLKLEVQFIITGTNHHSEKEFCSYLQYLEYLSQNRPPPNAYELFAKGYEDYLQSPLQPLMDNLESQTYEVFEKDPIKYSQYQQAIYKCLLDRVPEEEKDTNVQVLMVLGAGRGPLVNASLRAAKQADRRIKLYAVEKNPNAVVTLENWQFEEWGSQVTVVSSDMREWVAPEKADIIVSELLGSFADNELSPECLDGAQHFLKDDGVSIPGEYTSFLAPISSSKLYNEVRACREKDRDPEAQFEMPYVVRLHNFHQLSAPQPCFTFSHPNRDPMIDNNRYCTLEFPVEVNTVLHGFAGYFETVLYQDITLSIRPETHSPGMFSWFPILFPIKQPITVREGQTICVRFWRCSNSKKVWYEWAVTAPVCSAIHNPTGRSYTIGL
T1 sequence (Q9BQA1 whole entry partner): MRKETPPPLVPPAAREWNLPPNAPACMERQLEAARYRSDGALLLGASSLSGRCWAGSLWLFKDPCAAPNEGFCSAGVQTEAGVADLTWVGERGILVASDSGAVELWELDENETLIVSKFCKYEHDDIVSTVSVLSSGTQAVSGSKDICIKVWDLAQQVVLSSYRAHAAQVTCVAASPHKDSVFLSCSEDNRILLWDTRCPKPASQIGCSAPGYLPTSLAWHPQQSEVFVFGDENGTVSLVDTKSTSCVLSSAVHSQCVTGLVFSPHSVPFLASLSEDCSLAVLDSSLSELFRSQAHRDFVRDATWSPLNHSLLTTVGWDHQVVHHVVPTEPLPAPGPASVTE
Procedure: PRMT5-MEP50 Enzyme Methylation Assay (Version B)
PRMT5-MEP50 biochemical assay is a direct measurement of the methylation activity of the enzyme complex on a short peptide substrate derived from the N-terminus of H4 histone. Methylation experiment was performed with recombinant PRMT5-MEP50 protein complex. The assessment of inhibitory effect (EC50) of small molecules was measured by the effectiveness of the compounds to inhibit this reaction.
In this assay, the potency (EC50) of each compound was determined from a twenty-point (1:2 serial dilution; top compound concentration of 100000 nM) titration curve using the following outlined procedure. To each well of a white ProxiPlus 384 well-plate, 100 nL of compound (1% DMSO in final assay volume of 10 μL) was dispensed, followed by the addition of 8 μL of 1× assay buffer (50 mM Bicine pH 8.0, 1 mM DTT, 0.004% Tween20, 0.01% BSA) containing 0.625 nM of Full-length (FL)-PRMT5-MEP50 enzyme complex (recombinant proteins from baculovirus-transfected Sf21 cells: FL-PRMT5; MW=[…] and FL-MEP50; MW=38614). Plates were sealed and placed in a 37° C. humidified chamber for 30 minutes pre-incubation with compounds. Subsequently, each reaction was initiated by the addition of 2 μL 1× assay buffer containing 375 nM biotinylated H4R3 (MeI) peptide, and 75 μM S-(5′-Adenosyl)-L-Methionine Chloride (SAM). The final reaction in each well of 10 μL consists of 0.5 nM PRMT5-MEP50, 75 nM biotinylated-peptide, and 15 μM SAM. Methylation reactions were allowed to proceed for 150 minutes in a sealed plate at 37° C. Reactions were immediately quenched by the addition of 1 μL of 10% formic acid. Plates were then frozen and shipped to SAMDI™ Tech Inc. to determine the percent conversion from […]. Dose-response curves were generated by plotting percent effect (% product conversion; Y-axis) vs. Log 10 compound concentrations (X-axis). EC50 values were determined by non-linear regression according to models for either sigmoidal (4 parameters) or biphasic (7 parameters) dose-response curves.

[2] = target: T2, PRMT5 (Homo sapiens, UniProt O14744); test: PRMT5 Cell Target Engagement (TE) Assay; assay type: cell-based; conditions: MCF-7 cells, treated for 3 days, symmetric dimethylation of arginine (SDMA) by high content imaging
T2 construct: seeded with 4000 MCF-7 cells in 30 μl media; endogenous in cells; host or cells: MCF-7 cells
T2 sequence (O14744 whole entry): as the sequence (O14744 whole entry) above
T2 sequence (Q9BQA1 whole entry partner): as the sequence (Q9BQA1 whole entry partner) above
Description: PRMT5 Cell Target Engagement (TE) Assay
The PRMT5 TE assay is a biomarker assay for identifying compounds that inhibit symmetric dimethylation of arginine (SDMA) of PRMT5 substrates. The following substrates have been reported for PRMT5: histone H2A and H4 R3, Histone H3 R2, Histone H3 R8, spliceosome Sm proteins, ribosomal protein RPS10, p53, FEN1, nucleoplasmin, nucleolin, EGFR and EBNA. The assay focuses on detecting symmetrically dimethylated nuclear proteins using high content imaging technology. Detection of the expression of symmetrically dimethylated nuclear proteins is through a mixture of primary rabbit monoclonal antibodies to SDMA (CST 13222), which in turn recognized by an Alexafluor 488 dye-conjugated anti-rabbit IgG secondary antibody. The IN Cell Analyzer 2200 or Opera-Phenix measures nuclear Alexafluor 488 fluorescent dye intensity that is directly related to the level of expression of symmetrically dimethylated nuclear proteins at the single cell level. Nuclear AF488 dye intensities are compared to the mean value for DMSO treated cells (MIN) to report percent of inhibition for each compound-treated well.
In this assay, the cell potency (EC50) of each compound was determined from a ten point (1:3 serial dilution; top compound concentration of 10000 nM) titration curve using the following outlined procedure. Each well of a BD falcon collagen coated black/clear bottom 384-well plate was seeded with 4000 MCF-7 cells in 30 μl media and allowed to attach for 5 h. Media is ATCC-formulated Eagle's Minimum Essential Medium, Catalog No. 30-2003. To make the complete growth medium, the following components were added to the base medium: 0.01 mg/mL human recombinant insulin; fetal bovine serum to a final concentration of 10%. Additional 30 μl of media containing 2× compounds were added to each well. Cells were treated for 3 days in 37° C. CO2 incubator. On day 3, cells were fixed with Cytofix, permeabilized with 0.4% Triton-X-100/Cytofix, and washed with D-PBS without Ca/Mg. Cells were blocked with Licor Odessey blocking reagent for 1 h at room temperature, followed by incubation with anti-SDMA (1:1000) antibody at 4° C. overnight. 1° antibody was removed, followed by three washings with DPBS without Ca/Mg and 0.05% Tween20. Hoechst (5 μg/mL), Cell Mask deep stain (1:2000) and Alexa488-conjugated goat anti-rabbit IgG (2 μg/mL) was added for 1 h at room temperature. A final washing step (three washes) was performed before sealing plate for imaging on In Cell Analyzer 2200 or Opera-Phenix. Images from analyzer were uploaded to Columbus (at WP or BOS) for image analysis. IC50 values were determined by 4 parameters robust fit of percent fluorescence units vs. (Log10) compound concentrations.

[3] = first of two EC50s: 7 parameters biphasic model, read-out: Enzyme Methylation Assay Version B (EC50_1)
[4] = second of two EC50s: 7 parameters biphasic model, read-out: Enzyme Methylation Assay Version B (EC50_2)

| Compound | EC50 [1, 3] [nM] | EC50 [1, 4] [nM] | EC50 [2] [nM] | EC50 ([1]; only one EC50 shown: 4 parameters single site sigmoidal model, 30 min pre-incubation, read-out: Enzyme Methylation Assay Version B (EC50)) [nM] |
| --- | --- | --- | --- | --- |
| CC(=O)N1CCC(Nc2cc(C(=O)N3CCC(N4Cc5ccccc5C(F)(F)C4)C(O)C3)c(Cl)cn2)CC1 (single isomer, unassigned) [Example 25, l-(4-((5-chloro-4-(-4-(4,4-difluoro-3,4-dihydroisoquinolin-2(1H)-yl)-3-hydroxypiperidine-1-carbonyl)pyridin-2-yl)amino)piperidin-1-yl)ethan-1-one] | 841 | 33900 | > 10000 | – |
| O=C(c1ccc(C(=O)N2C3CCC2COC3)cc1)N1CC[C@@H](N2CCc3ccc(F)cc3C2)[C@H](O)C1 [Example 42] | 12400 | > 100000 | > 10000 | – |
| CCC1Oc2ccc(C(=O)N3CC[C@H](N4CCc5ccccc5C4)[C@@H](O)C3)cc2NC1=O (single isomer, unassigned) [Example 11] | 1.8 | 1070 | 4.9 | – |
| CC(C)(C#N)c1ccc(C(=O)N2CC[C@H](N3CCc4ccccc4C3)[C@@H](O)C2)cn1 (single isomer, unassigned) [Example 89] | ~110 | > 100000 | 3950 | – |
| CS(=O)(=O)N1CCC(Nc2cc(C(=O)N3CC[C@H](N4CCc5ccccc5C4)[C@@H](O)C3)c(F)cn2)CC1 [Example 105, ((3S,4S)-4-(3,4-dihydroisoquinolin-2(1H)-yl)-3-hydroxypiperidin-1-yl)(5-fluoro-2-((1-(methylsulfonyl)piperidin-4-yl)amino)pyridin-4-yl)methanone] | 3.2 | 1040 | 15 | – |
| O=C(c1ccc(C(=O)N2C3CCC2COC3)cc1)N1CC[C@H](N2CCc3c(F)cccc3C2)[C@@H](O)C1 [Example 37, (4-(3-oxa-8-azabicyclo[3.2.1]octane-8-carbonyl)phenyl)((3S,4S)-4-(5-fluoro-3,4-dihydroisoquinolin-2(1H)-yl)-3-hydroxypiperidin-1-yl)methanone] | ~87 | 28600 | 1850 | – |
| CC(=O)N1CCC(Nc2cc(C(=O)N3CC[C@@H](N4CCc5ccccc5C4)[C@H](O)C3)ccn2)C(F)(F)C1 (single isomer, unassigned) [Example 9] | 61 | 8790 | 1680 | – |
| CC(=O)N1CCC(Nc2cc(C(=O)N3CC[C@H](N4CCc5ccccc5C4)[C@@H](O)C3)ccn2)C(F)(F)C1 (single isomer, unassigned) [Example 7] | 16 | 8570 | 326 | – |
| O=C(c1ccc(C(=O)N2C3CCC2COC3)cc1)N1CC[C@@H](N2CCc3ccccc3C2)[C@H](O)C1 [Example 36, (4-(3-oxa-8-azabicyclo[3.2.1]octane-8-carbonyl)phenyl)((3R,4R)-4-(3,4-dihydroisoquinolin-2(1H)-yl)-3-hydroxypiperidin-1-yl)methanone] | ~552 | > 100000 | > 10000 | – |
| CC1(C)CC(=O)Nc2cc(C(=O)N3CC[C@@H](N4CCc5ccccc5C4)[C@H](O)C3)ccc21 [Example 95, 7-((3R,4R)-4-(3,4-dihydroisoquinolin-2(1H)-yl)-3-hydroxypiperidine-1-carbonyl)-4,4-dimethyl-3,4-dihydroquinolin-2(1H)-one] | ~62 | 39400 | 2710 | – |
| Cc1ccc2c(c1)CCN([C@H]1CCN(C(=O)c3ccc(OCC(F)(F)F)nc3)C[C@@H]1O)C2 [Example 4, ((3S,4S)-3-hydroxy-4-(6-methyl-3,4-dihydroisoquinolin-2(1H)-yl)piperidin-1-yl)(6-(2,2,2-trifluoroethoxy)pyridin-3-yl)methanone] | ~10 | 29200 | > 10000 | – |
| CC(=O)N1CCC(Nc2cc(C(=O)N3CC[C@H](N4CCc5ccccc5C4)[C@@H](O)C3)c(Cl)cn2)CC1 [Example 49, 1-{4-[(5-chloro-4-{[(3S,4S)-4-(3,4-dihydroisoquinolin-2(1H)-yl)-3-hydroxypiperidin-1-yl]carbonyl}pyridin-2-yl)amino]piperidin-1-yl}ethanone] | 11 | 8910 | 7.8 | – |
| CCC1Oc2ccc(C(=O)N3CC[C@H](N4CCc5ccccc5C4)[C@@H](O)C3)cc2NC1=O (single isomer, unassigned) [Example 10] | 6.4 | 4620 | 119 | – |
| CC1OC(=O)Nc2cc(C(=O)N3CC[C@@H](N4CCc5ccccc5C4)[C@H](O)C3)ccc21 (single isomer, unassigned) [Example 92] | 4.4 | 2460 | 32 | – |
| CC(=O)N1CCC(Nc2cc(C(=O)N3CCC(N4Cc5ccccc5C(F)(F)C4)C(O)C3)c(Cl)cn2)CC1 (single isomer, unassigned) [Example 28, l-(4-((5-chloro-4-(-4-(4,4-difluoro-3,4-dihydroisoquinolin-2(lH)-yl)-3-hydroxypiperidine-1 - carbonyl)pyridin-2-yl)amino)piperidin-1-yl)ethan-1-one] | 1270 | 45200 | 1660 | – |
| CC(=O)N1CCC(Nc2cc(C(=O)N3CC[C@@H](N4CCc5ccccc5C4)[C@H](O)C3)ccn2)C(F)(F)C1 (single isomer, unassigned) [Example 8] | ~571 | > 100000 | 9290 | – |
| O=C(c1ccn(CC(F)(F)F)c(=O)c1)N1CC[C@H](N2CCc3ccccc3C2)[C@@H](O)C1 [Example 31, 4-((3S,4S)-4-(3,4-dihydroisoquinolin-2(1H)-yl)-3-hydroxypiperidine-1-carbonyl)-1-(2,2,2-trifluoroethyl)pyridin-2(1H)-one] | ~30 | 34300 | 405 | – |
| O=C(c1ccc(OCC(F)(F)F)nc1)N1CCC(N2Cc3ccccc3C(F)(F)C2)C(O)C1 (single isomer, unassigned) [Example 26, (-4-(4,4-difluoro-3,4-dihydroisoquinolin-2(1H)-yl)-3-hydroxypiperidin-1-yl)(6-(2,2,2-trifluoroethoxy)pyridin-3-yl)methanone] | – | – | > 10000 | 15200 |
| CCC1Oc2ccc(C(=O)N3CC[C@@H](N4CCc5ccccc5C4)[C@H](O)C3)cc2NC1=O (single isomer, unassigned) [Example 13] | ~14 | 17600 | 641 | – |
